The values that follow come from article PMC5555576, “Selective small-chemical inhibitors of protein arginine methyltransferase 5 with anti-lung cancer activity” (PLoS ONE, 2017).

One experiment concerns A549 cells. Nature of the experiment: Cell cycle distribution by flow cytometry. It is filed as cell-based. As to conditions: 20 μM, 2 days. As for the experimental part: Supplementary file pone.0181601.s002.tif: S2 Fig Identified compounds arrested cell cycle at the G1 phase. A549 cells were infected with the lentivirus expressing non-target (NT) or PRMT5 shRNA as described previously by us. A549 cells were grown in the presence of DMSO or 20 μM of the compound C5, C9 or C11 for 2 days. A, PRMT5 protein levels in A549 cells. Whole cell lysates were prepared and submitted for Western blot analysis with anti-PRMT5 (top) or anti-actin (bottom) antibody. B, Cell cycle distributions. Cells were harvested, washed with phosphate-buffered saline (PBS) and fixed in 70% ethanol at 4 °C overnight. Cells were collected and stained with propidium iodide (PI). The cell-cycle distributions were determined by flow cytometry analysis (BD Accuri^TM C6 Flow Cyometer). (TIF) Click here for additional data file.
In general terms: A flow cytometer gives signals particle by particle.

Another experiment addresses T1, PRMT5 F225M (Homo sapiens, UniProt O14744, F327M).
T1 construct: His6; made in house; host or cells: bacteria (E. coli BL21(ED3) for the wild type)
The experiment can be described thus: Radioactive methyltransferase assay, mutant PRMT5. Type of experiment: biochemical. As to conditions: F225M mutant PRMT5, SmD3 substrate, Fig 4D. As for the experimental part:
Methylation reactions were performed as previously described with a few modifications. Reaction mixtures (40 μl) containing 1.2 μg of PRMT5, 98 ng of PRMT1 or 98 ng of PRMT3; 2 μg of SmD3 or histones; 1 μCi of S-[methyl-^3H]adenosylmethionine (H^3-AdoMet; PerkinElmer); and 5 μM AdoMet were incubated in 50 mM Tris-HCl (pH 7.5)–1 mM EGTA–1 mM EDTA at 30°C for 2 h. Reaction mixtures (20 μl) were boiled in 5 μl of 5x SDS sample buffer and separated on a 15% polyacrylamide gel. Gels were fixed for 30 min in 40% methanol–10% acetic acid, incubated in 20 ml of Amplify (Amersham Life Science) for 10 min, dried and exposed to X-ray film at -80°C. IC50 was calculated by linear regression analysis of percent inhibition. The other half (20 μl) of each reaction mixture was spread onto DE81 chromatography paper discs (Whatman). The paper discs were washed 4 times with 50 mM NaHCO3 and dried. The amounts of methylated products were quantified by liquid scintillation.
The inhibitory activity of the compounds may stem from this interaction. To test this possibility, we conducted site-directed mutagenesis to mutate Phe225 in human PRMT5 (corresponding to Phe379 in the C. elegans PRMT5) to Met. The mutated PRMT5 was expressed in bacteria and purified by Ni-nitrilotriacetic acid (Ni-NTA) affinity chromatography (Fig 4A). The activity of the mutant PRMT5 was examined by the radioactive methyltransferase assay. […] The IC50 values for the mutant PRMT5 increased from 4.3 to 183 folds higher than those for the wild type PRMT5 (Fig 4D). […] The results also can help explain the specificity of the compounds to PRMT5. However, the contribution of this interaction to inhibition varies among the compounds. For example, compound C2 interacts with three amino acid residues (Lys451, Glu450, and Phe379) (Fig 3A) with the mutation of Phe to Met resulting in a 50-times higher IC50 (Fig 4C and 4D).
Fig 4 The conserved phenylalanine residue in PRMT5 is critical for inhibition by the five compounds. A, DS-PAGE of recombinant wild type (WT) and F225M mutant (MT) PRMT5. The gel was stained with Coomassie Brilliant Blue R250. A band corresponding to an unknown bacterial protein is indicated (star). B, The F225M mutation increased the methytransferase activity of PRMT5. In vitro methylation reactions were performed with recombinant wild type (lanes 2–4) or mutant (lanes 5–7) PRMT5 (1.2, 2.4 or 4.8 μg) and SmD3 (2 μg) as the substrate. C, The F225M mutation in PRMT5 decreased inhibition of arginine methylation by the compounds. The reaction mixture contained SmD3 (2 μg); wild type or mutant PRMT5 (1.2 μg); and 1, 10 or 100 μM compounds as indicated. D, The F225M mutation in PRMT5 […] of the compounds, as determined by quantitation and analysis of methylation assay results. TEXT PRINTED IN THE PICTURE: (D) C2: IC50 (μM) PRMT5: 0.1; IC50 (μM) PRMT5 F225M: 5.0 | (D) C5: IC50 (μM) PRMT5: 0.8; IC50 (μM) PRMT5 F225M: 3.5 | (D) C6: IC50 (μM) PRMT5: 0.5; IC50 (μM) PRMT5 F225M: 7.0 | (D) C9: IC50 (μM) PRMT5: 6.0; IC50 (μM) PRMT5 F225M: 45.0 | (D) C11: IC50 (μM) PRMT5: 0.3; IC50 (μM) PRMT5 F225M: 55.0

T1 sequence (O14744 whole entry F327M): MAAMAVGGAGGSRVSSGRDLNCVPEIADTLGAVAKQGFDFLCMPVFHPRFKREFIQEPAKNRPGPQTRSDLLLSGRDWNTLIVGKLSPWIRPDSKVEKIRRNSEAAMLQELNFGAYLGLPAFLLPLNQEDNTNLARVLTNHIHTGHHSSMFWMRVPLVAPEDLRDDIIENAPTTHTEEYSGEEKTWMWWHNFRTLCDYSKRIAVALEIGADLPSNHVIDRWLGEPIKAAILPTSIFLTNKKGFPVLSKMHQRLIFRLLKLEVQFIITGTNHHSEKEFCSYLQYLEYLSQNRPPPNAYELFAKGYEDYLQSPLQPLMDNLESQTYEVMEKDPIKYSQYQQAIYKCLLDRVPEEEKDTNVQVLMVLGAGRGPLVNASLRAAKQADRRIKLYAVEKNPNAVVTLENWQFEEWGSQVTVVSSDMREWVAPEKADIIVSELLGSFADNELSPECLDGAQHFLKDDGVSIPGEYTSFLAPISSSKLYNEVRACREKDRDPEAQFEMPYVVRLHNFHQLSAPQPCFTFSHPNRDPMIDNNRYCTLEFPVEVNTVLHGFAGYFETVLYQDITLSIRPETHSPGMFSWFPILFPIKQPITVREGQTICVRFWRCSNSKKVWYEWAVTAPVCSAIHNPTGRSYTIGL

For orientation: IC50 means the concentration that gives 50% inhibition. On to `CCn1c(=O)[nH]c2cc(C(=O)Nc3ccc(OC)cc3)ccc2c1=O` [Compound C5], for which the cell cycle effect result in the experiment on A549 cells is given as “arrested the cell cycle at the G1 phase”. The IC50 on PRMT5 F225M was found to be 3.5 µM.
With `COc1ccc(Nc2ncnc3c2cnn3Cc2ccc(C)cc2)cc1` [Compound C9], in the experiment with A549 cells, the cell cycle effect result was “arrested the cell cycle at the G1 phase”. The IC50 at PRMT5 F225M was determined as 45 µM.
For `Cn1cc(C(c2ccc(O)c(O)c2O)c2cn(C)c3ccccc23)c2ccccc21` [Compound C11], the cell cycle effect entry with A549 cells is “arrested the cell cycle at the G1 phase”. Moreover, the IC50 at PRMT5 F225M turned out to be 55 µM.
